In US9908863B2, “Piperidinylcarbazoles” (Merck Patent GmbH, priority 2013, dated 2018):
Counter-ions that a name gives are not always drawn. Like-named read-outs stand apart in the source and are kept apart here. Values belong to the compound of their own block, whether it stands above or below them.

How the values were obtained:
[1] = test system: Chloroquine/Pyrimethamine resistant Plasmodium falciparum K1; test: In vitro sensitivity assay: Plasmodium falciparum by 3H-hypoxanthine incorporation; assay type: cell-based; conditions: read-out: IC50 K1 in vitro
Experimental: Biological Test 1: In Vitro Sensitivity Assays: Plasmodium falciparum by ^3H-Hypoxanthine Incorporation.
The strain used for this assay is the Chloroquine/Pyrimethamine resistant Plasmodium falciparum K1 and drugs such as Chloroquine (10 mg/mL stock; start concentration 1000 ng/mL) and Artemisinine (Qinghaosu) (5 mg/mL stock; start concentration 10 ng/mL) were used as standards. Human red blood cells were used as host cells and the activity was measured using a ^3H-hypoxanthine incorporation assay.
Into a Costar™ 96-well microtitre plates, 100 μL of medium (RPMI 1640 without hypoxanthine 10.44 g/L, HEPES 5.94 g/L, Albumax® 5 g/L, Neomycin 10 mL/L, NaHCO3 2.1 g/L) were added to the wells of row containing drugs available from stock solutions of 10 mg/mL in DMSO (compounds were kept at −20° C. Since DMSO is toxic, care had to be taken not to exceed a final concentration of 0.5% DMSO). Then 100 μL of medium were added at rt to all wells of the plate. By means of a 12-well multi-pipette serial drug dilutions were prepared. A serial dilution factor of 1:2 is thus obtained. One row of wells without drugs served as controls. Next 100 μL of medium+washed human red blood cells A+(RBC) was added to the last 4 wells of the first row; these columns serve as background controls (that may be caused by 3H-hypoxanthine incorporation into RBC without the parasite). Into the remaining wells, 100 μL of medium+RBC+P. falciparum mix was added. The plates were placed for 48 h into a chamber at 37° C. gassed with a 4% CO2, 3% O2, 93% N2 mix. Finally 50 μL of medium+3H-hypoxanthine [(500 μL ^3H-hypoxanthine stock+500 μL EtOH+49 mL medium (0.5 μCi)] was added to each well and the plates were put back at 37° C. for 24 h into the chamber and gassed with a 4% CO2, 3% O2, 93% N2 mix. The plates were then read using the Cell Harvester and the data were transferred into a graphic program (Excel) and are evaluated to determine the IC50 by linear interpolation.

[2] = test system: P. falciparum strain NF54; test: P. falciparum growth assay ([3H] hypoxanthine incorporation); assay type: cell-based; conditions: Plasmodium falciparum, NF54, read-out: IC50 NF54
Experimental: • Cultivation of P. falciparum:
P. falciparum strain NF54 was obtained from the Research and Reference Reagent
Resource Center (MR4) (Manassas, Va.). The two strains were maintained in vitro by a modification of the method of Trager and Jensen. Cultures were maintained in A positive (A+) human erythrocytes suspended at 5% hematocrit in complete medium. 5 g albumax II (Gibco-Invitrogen, Cat No#11021037), 2.5 mg gentamicin (Sigma Aldrich), 25 mM HEPES (Invitrogen), 5 mg hypoxanthine (Sigma), and 1 L of RPMI 1640 (Invitrogen, Cat No#11875085). Cultures were grown in 100 mm petri-dishes (BD Falcon) at a volume of 15 mL and were kept in a standard gas environment of 4% CO2 and 3% 02 at temperature 37° C. in a tri-gas incubator (Cat#3131, Thermo Scientific Forma Series II Water Jacketed). Parasite growth and morphology were observed daily using thin smears at 100× (oil immersion) magnification following staining with Geimsa stain. • P. falciparum growth assay:
The protocol assesses the compound efficacy against the growth of P. falciparum in-vitro.
Parasite growth was detected in assay by the traditional [3H] hypoxanthine incorporation assay as previously described by Desjardins and colleagues (Antimicrob. Agents Chemother., 16(6), 710, 1979). To perform the [3H] hypoxanthine incorporation assay, the new antimalarial agents were serially diluted 1:1 into hypoxanthine-free complete medium to a final volume of 100 μL (final antimalarial agent concentration range, 10,000 nM to 4.8 nM may change in special case) in 96 well sterile cell culture plates. […] All cultures used in the study are albumax II adopted. The microtiter plates were incubated in chamber in a standard gas environment at 37° C. for 72 h. After 48 h of incubation and prior to addition of 50 μL (0.5 μCi/well) 3H-Hypoxanthine (specific activity, 20 Ci/mmol, Conc. 1.0 mCi/ml; American Radiolabeled Chemicals, Inc., St. Louis, Mo.), culture growth was assessed by making the smears that ensures the culture has grown in % p and assay plate is further incubated for 24 h. Following the incubation period, the plates were harvested with a FilterMate cell harvester (Perkin Elmer) onto unifilter-96 GF/B plates, washed with distilled water to remove excess radiochemical and plates were kept for drying 37° C. overnight or 60° C. for 1 h. 50 μL of Microscint scintillation cocktail (Microscint-High Efficiency LSC-Cocktail; Perkin Elmer) added in the unifilter-96 GF/B plates and kept for 15-20 min. The plates were counted in a Top Count NXT microplate scintillation and luminescence counter (Perkin Elmer). The mean values for [3H]hypoxanthine incorporation in parasitized control and non-parasitized control erythrocytes were calculated.
Assay data were analyzed using Graph pad prism ver.5 software. A variable sigmoid dose response curve is plotted keeping log concentrations at X-axis and % inhibition at Y-axis.

[3] = test system: Plasmodium berghei, (GFP ANKA strain); test: Plasmodium berghei acute in vivo model; conditions: NMRI mice, 50 mg/kg/day i.p., 4 daily doses; for decrease of parasitemia: day 4, relative to untreated control group; for Mean Survival Days: survival monitored up to 30 days
Experimental: Biological Test 2: Plasmodium berghei Acute In Vivo Model.
For this study Plasmodium berghei, (GFP ANKA strain) was used as parasite strain and drugs such as Chloroquine (Sigma C6628) Artemisinin (Sigma 36, 159-3) were used as positive controls.
For the assay a donor mouse with approximately 30% parasitaemia, heparinised blood (containing 50 μL of 200 μ/mL Heparin) was taken and diluted in physiological saline to 10^8 parasitized erythrocytes per mL. An aliquot (0.2 mL) of this suspension was injected intravenously (i.v.) into experimental groups of 3 mice (NMRI mice, females, 20-22 g), and a control group of 3 mice. The mice were studied in a standard macrolon cages type II at 22° C. and 60-70% relative humidity, and were fed with special pellets (PAB45—NAFAG 9009, Provimi Kliba A G, CH-4303 Kaiseraugst, Switzerland), water ad libitum. 4 hours post-infection—the experimental groups were treated with a single dose i.p of the tested drug. The dosage was 50 mg/kg/day and the drug concentration (DMSO 10%) was adjusted so that 0.1 mL/10 g was injected. In a similar manner after 24, 48 and 72 hours post-infection—the experimental groups were treated with a single daily dose i.p. Finally 24 hours after the last drug treatment, 1 μL tail blood was taken and dissolved in 1 mL PBS buffer. Parasitaemia was determined with a FACScan (Becton Dickinson) by counting 100'000 red blood cells. The difference between the mean value of the control group and those of the experimental groups was then calculated and expressed as a percent relative to the control group (=activity). The survival of the animals was monitored up to 30 days and mice surviving for 30 days were checked for parasitaemia and subsequently euthanised. A compound is considered curative if the animal survives to day 30 post-infection with no detectable parasites. The result is expressed as 1) reduction of parasitaemia on day 4 in % as compared to the untreated control group, and 2) mean survival of the group.
B. Franke-Fayard et al., Mol. Biochem. Parasitol., 137(1),23-33, 2004

[4] = test system: P falciparum PF3D/^0087/N9; test: In vivo efficacy in a murine model of falciparum-malaria (4-day test); set-up: species or system Plasmodium falciparum
Source text: Biological Experiment 5: In Vivo Efficacy Against P falciparum PF3D/^0087/N9 for the compound No. 6 Described in Example 6 • In vivo activity in a murine model of falciparum-Malaria Angulo-Barturen I, Jimenez-Diaz M B, Mulet T, Rullas J, Herreros E, et al. (2008) A Murine Model of falciparum-Malaria by In Vivo Selection of Competent Strains in Non-Myelodepleted Mice Engrafted with Human Erythrocytes. PLoS ONE 3(5): e2252. doi:10.1371/journal.pone.0002252.
This study measures the therapeutic efficacy of compound no. 6 against Plasmodium falciparum growing in peripheral blood of NODscidIL2Rynull mice engrafted with human erythrocytes. The antimalarial efficacy of compound no. 6 is assessed using a “4-day test”.
The parameters of efficacy estimated in the study are a) the dose of compound no. 6 in mg·kg-1 that reduces parasitemia at day 7 after infection by 90% with respect to vehicle-treated mice (parameter denoted as ED90) and b) the estimated average daily exposure in whole blood of compound no. 6 necessary to reduce P. falciparum parasitemia in peripheral blood at day 7 after infection by 90% with respect to vehicle-treated mice (parameter used to measure the potency of the compound and denoted as AUCED90).

[5] = Erythrocyte, P. falciparum K1 strain in human red blood cells, 3H-hypoxanthine incorporation

- IC50 [1, 5]: 127 nM
SMILES: CC(C)(C)OC(=O)N1CC[C@@H](O)[C@H](n2c3ccc(F)cc3c3cc(Cl)ccc32)C1 (racemic) [Compound 2, trans-3-(3-Chloro-6-fluoro-carbazol-9-yl)-4-hydroxy-piperidine-1-carboxylic acid tert-butyl ester]

SMILES: O[C@H]1CNCC[C@@H]1n1c2ccc(Cl)cc2c2cc(Cl)ccc21 (racemic) [Compound 5, Trans-4-(3,6-Dichloro-carbazol-9-yl)-piperidin-3-ol hydrochloride salt]
- IC50 ([1]; K1, Erythrocyte): 9 nM
- IC50 [2]: 109 nM

SMILES: O[C@@H]1CNCC[C@H]1n1c2ccc(F)cc2c2cc(F)ccc21 [Compound 10, (3R,4R)-4-(3,6-Difluoro-carbazol-9-yl)-piperidin-3-ol hydrochloride salt]
- IC50 ([1]; K1, Erythrocyte): 33 nM

SMILES: F[C@@H]1CNCC[C@@H]1n1c2ccc(Cl)cc2c2cc(Cl)ccc21 [Compound 11, 3,6-Dichloro-9-((3R,4S)-3-fluoro-piperidin-4-yl)-9H-carbazole hydrochloride salt]
- IC50 ([1]; K1, Erythrocyte): 1150 nM

SMILES: O[C@@H]1CNCC[C@H]1n1c2ccc(F)cc2c2cc(Cl)ccc21 [Compound 4, (3R,4R)-4-(3-Chloro-6-fluoro-carbazol-9-yl)-piperidin-3-ol hydrochloride salt]
- IC50 ([1]; K1, Erythrocyte): 3 nM

SMILES: Fc1ccc2c(c1)c1cc(Cl)ccc1n2[C@@H]1CCNC[C@@H]1F [Compound 12, 3-Chloro-6-fluoro-9-((3S,4R)-3-fluoro-piperidin-4-yl)-9H-carbazole hydrochloride salt]
- IC50 ([1]; K1, Erythrocyte): 3670 nM

- IC50 [1, 5]: 315 nM
SMILES: CC(C)(C)OC(=O)N1CC[C@H](n2c3ccc(F)cc3c3cc(Cl)ccc32)[C@@H](O)C1 (racemic) [Compound 1, trans-4-(3-Chloro-6-fluoro-carbazol-9-yl)-3-hydroxy-piperidine-1-carboxylic acid tert-butyl ester]

SMILES: O[C@@H]1CNCC[C@H]1n1c2ccccc2c2ccccc21 [Compound 15, (3R,4R)-4-Carbazol-9-yl-piperidin-3-ol hydrochloride salt]
- IC50 ([1]; K1, Erythrocyte): 383 nM

SMILES: O[C@H]1CNCC[C@@H]1n1c2ccc(Cl)cc2c2cc(Cl)ccc21 [Compound 6, (3S,4S)-4-(3,6-Dichloro-carbazol-9-yl)-piperidin-3-ol hydrochloride salt]
- IC50 ([1]; K1, Erythrocyte): 10 nM
- decrease of parasitemia [3]: 99.8%
- Mean Survival Days [3]: 30 days
- IC50 [2]: 40.2 nM
- ED90 ([4]; dose reducing parasitemia at day 7 after infection by 90% vs vehicle-treated mice, NODscidIL2Rynull mice engrafted with human erythrocytes): 22.5 mg/kg
- AUCED90 ([4]; estimated average daily exposure in whole blood needed to reduce parasitemia at day 7 by 90% vs vehicle-treated mice): 28.5 μg · h · ml^−1 · day^−1

SMILES: O[C@H]1CNCC[C@@H]1n1c2ccccc2c2ccccc21 [Compound 16, (3S,4S)-4-Carbazol-9-yl-piperidin-3-ol hydrochloride salt]
- IC50 ([1]; K1, Erythrocyte): 364 nM

SMILES: O[C@H]1CNCC[C@@H]1n1c2ccc(F)cc2c2cc(Cl)ccc21 [Compound 3, (3S,4S)-4-(3-Chloro-6-fluoro-carbazol-9-yl)-piperidin-3-ol hydrochloride salt]
- IC50 ([1]; K1, Erythrocyte): 3 nM

- IC50 [1, 5]: 781 nM
SMILES: O[C@H]1CCNC[C@@H]1n1c2ccc(Cl)cc2c2cc(Cl)ccc21 (racemic) [Compound 8, trans-3-(3,6-dichloro-9H-carbazol-9-yl)piperidin-4-ol]

SMILES: O[C@@H]1CNCC[C@H]1n1c2ccc(Cl)cc2c2cc(Cl)ccc21 [Compound 7, (3R,4R)-4-(3,6-Dichloro-carbazol-9-yl)-piperidin-3-ol hydrochloride salt]
- IC50 ([1]; K1, Erythrocyte): 9 nM
- decrease of parasitemia [3]: 100%
- Mean Survival Days [3]: 30 days
- IC50 [2]: 41.2 nM

SMILES: O[C@H]1CNCC[C@@H]1n1c2ccc(F)cc2c2cc(F)ccc21 [Compound 9, (3S,4S)-4-(3,6-Difluoro-carbazol-9-yl)-piperidin-3-ol hydrochloride salt]
- IC50 ([1]; K1, Erythrocyte): 16 nM
- IC50 [2]: 307 nM

SMILES: Fc1ccc2c(c1)c1cc(Cl)ccc1n2[C@H]1CCNC[C@H]1F [Compound 13, 3-Chloro-6-fluoro-9-((3R,4S)-3-fluoro-piperidin-4-yl)-9H-carbazole hydrochloride salt]
- IC50 ([1]; K1, Erythrocyte): 886 nM

- IC50 [1, 5]: 13 nM
SMILES: O[C@H]1CCN(C2CCCCC2)C[C@@H]1n1c2ccc(Cl)cc2c2cc(Cl)ccc21 (racemic) [Compound 14]
